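Exposure lasted 48 hours, with cells grown in 96-well plates and compounds tested at five concentrations. GI50 is the concentration that inhibits growth by half.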 Active and inactive are the calls of the source. Rule as the data show it: active = GI50 up to about 1.1 µM and inactive = higher.
Experiments:
Assay in all cases: inhibition of tumour cell growth, NCI panel, 48 h
T47D = tested on: T47D
NCI-H522 = tested on: NCI-H522
NCI-H23 = tested on: NCI-H23
UACC-257 = tested on: UACC-257
EKVX = tested on: EKVX
UACC-62 = tested on: UACC-62
MDA-MB-231 = tested on: MDA-MB-231
COLO 205 = tested on: COLO 205
SN12C = tested on: SN12C
SF-295 = tested on: SF-295
NCI/ADR-RES = tested on: NCI/ADR-RES
OVCAR-3 = tested on: OVCAR-3
HCT-116 = tested on: HCT-116
A498 = tested on: A498
OVCAR-4 = tested on: OVCAR-4
UO-31 = tested on: UO-31
U-251 = tested on: U-251
Hs-578T = tested on: Hs-578T
IGROV-1 = tested on: IGROV-1
Malme-3M = tested on: Malme-3M
KM12 = tested on: KM12
ACHN = tested on: ACHN
RXF 393 = tested on: RXF 393
MOLT-4 = tested on: MOLT-4
786-0 = tested on: 786-0
SK-MEL-28 = tested on: SK-MEL-28
PC-3 = tested on: PC-3
OVCAR-5 = tested on: OVCAR-5
HCT-15 = tested on: HCT-15
NCI-H226 = tested on: NCI-H226
SK-OV-3 = tested on: SK-OV-3
SW-620 = tested on: SW-620
BT-549 = tested on: BT-549
SF-268 = tested on: SF-268
HOP-62 = tested on: HOP-62
MCF7 = tested on: MCF7
DU-145 = tested on: DU-145
OVCAR-8 = tested on: OVCAR-8
SNB-19 = tested on: SNB-19
MDA-N = tested on: MDA-N
A549 = tested on: A549
HOP-92 = tested on: HOP-92
SNB-75 = tested on: SNB-75
K562 = tested on: K562
RPMI-8226 = tested on: RPMI-8226
SF-539 = tested on: SF-539
NCI-H460 = tested on: NCI-H460
HCC 2998 = tested on: HCC 2998
SK-MEL-5 = tested on: SK-MEL-5
LOX IMVI = tested on: LOX IMVI
MDA-MB-435 = tested on: MDA-MB-435
CCRF-CEM = tested on: CCRF-CEM
HT-29 = tested on: HT-29
HL-60 = tested on: HL-60
TK-10 = tested on: TK-10
SR = tested on: SR
M14 = tested on: M14

Cc1nc2ccccc2c(=O)n1NC(=O)c1ccc(CS)cc1
GI50 (T47D): 16.7 µM (inactive) | GI50 (NCI-H522): 12.3 µM (inactive) | GI50 (NCI-H23): 15.6 µM (inactive) | GI50 (UACC-257): 20.4 µM (inactive) | GI50 (EKVX): 4.76 µM (inactive) | GI50 (UACC-62): 6.58 µM (inactive) | GI50 (MDA-MB-231): 13 µM (inactive) | GI50 (COLO 205): 15.2 µM (inactive) | GI50 (SN12C): 11.9 µM (inactive) | GI50 (SF-295): 25.8 µM (inactive) | GI50 (NCI/ADR-RES): 28.6 µM (inactive) | GI50 (OVCAR-3): 11.8 µM (inactive) | GI50 (HCT-116): 4.4 µM (inactive) | GI50 (A498): 11.2 µM (inactive) | GI50 (OVCAR-4): 15.1 µM (inactive) | GI50 (UO-31): 12.5 µM (inactive) | GI50 (U-251): 3.94 µM (inactive) | GI50 (Hs-578T): 16.6 µM (inactive) | GI50 (IGROV-1): 8.59 µM (inactive) | GI50 (Malme-3M): 27.9 µM (inactive) | GI50 (KM12): 15.3 µM (inactive) | GI50 (ACHN): 10.9 µM (inactive) | GI50 (RXF 393): > 10 µM (inactive) | GI50 (MOLT-4): 1.02 µM (active) | GI50 (786-0): 11.5 µM (inactive) | GI50 (SK-MEL-28): 12.7 µM (inactive) | GI50 (PC-3): 1.74 µM (inactive) | GI50 (OVCAR-5): 34.5 µM (inactive) | GI50 (HCT-15): 16.4 µM | GI50 (NCI-H226): 2.84 µM (inactive) | GI50 (SK-OV-3): 17.8 µM (inactive) | GI50 (SW-620): 6 µM (inactive) | GI50 (BT-549): 13.7 µM (inactive) | GI50 (SF-268): 4.06 µM (inactive) | GI50 (HOP-62): 18.8 µM (inactive) | GI50 (MCF7): 5.64 µM (inactive) | GI50 (DU-145): 28.1 µM (inactive) | GI50 (OVCAR-8): 20.8 µM (inactive) | GI50 (SNB-19): 38.2 µM (inactive) | GI50 (MDA-N): > 10 µM (inactive) | GI50 (A549): 7.48 µM (inactive) | GI50 (HOP-92): 7.85 µM (inactive) | GI50 (SNB-75): 14.9 µM (inactive) | GI50 (K562): 6.21 µM (inactive) | GI50 (RPMI-8226): 11.1 µM (inactive) | GI50 (SF-539): 12.9 µM (inactive) | GI50 (NCI-H460): 19 µM (inactive) | GI50 (HCC 2998): 18.5 µM (inactive) | GI50 (SK-MEL-5): 3.92 µM (inactive) | GI50 (LOX IMVI): 0.145 µM (active) | GI50 (MDA-MB-435): 12.9 µM (inactive) | GI50 (CCRF-CEM): 0.82 µM (active) | GI50 (HT-29): 10.8 µM (inactive) | GI50 (HL-60): 2.7 µM (inactive) | GI50 (TK-10): > 10 µM (inactive) | GI50 (SR): 2.97 µM (inactive) | GI50 (M14): 12.2 µM (inactive)

From ChEMBL document CHEMBL1201862, “PubChem BioAssay data set” (2004)
